# Measurements as given in US11684607B2, “Secnidazole for use in the treatment of bacterial vaginosis” (priority 2014, dated 2023).
# Where two headings read alike, the source gives them in different places.
# Assay: Effect of a single 2 g dose of SYM-1219 on the plasma pharmacokinetics of EE2 and NET in healthy female subjects
# Type: in vivo, human
# Protocol: Methods: Fifty-four (54) healthy female subjects, ages 18-65, received EE2/NET alone and in combination, where SYM-1219+EE2/NET were co-administered on Day 1 (Group B1; N=27) or SYM-1219 on Day 1 and EE2/NET on Day 2 (Group B2; N=27). Serial blood samples were drawn to measure plasma concentrations of EE2/NET. […] Safety was evaluated by recording of adverse events, vital signs, ECGs and standard laboratory tests.
# [1] = EE2/NET administered 1 day after SYM-1219
# [2] = Group B1: Period 2 (EE2/NET followed by SYM-1219 2 grams on Day 1) vs Period 1 (EE2/NET alone)
# [3] = Group B1 Period 1: EE2/NET alone
# [4] = Group B1 Period 2: EE2/NET followed by SYM-1219 2 grams on Day 1
# [5] = Group B2: Period 2 (SYM-1219 2 grams on Day 1, EE2/NET on Day 2) vs Period 1 (EE2/NET alone)
# [6] = Group B2: SYM-1219 2 g on Day 1, EE2/NET on Day 2
# [7] = Group B2 Period 1: EE2/NET alone
# [8] = Group B2 Period 2: SYM-1219 2 grams on Day 1, EE2/NET on Day 2
smiles,measurement,setting,value
"C#C[C@]1(O)CC[C@H]2[C@@H]3CCC4=CC(=O)CC[C@@H]4[C@H]3CC[C@@]21C [NET, norethindrone]","NET Cmax, AUC0-t or AUC0-∞ increase",[1],9-16%
same,NET upper value of the 90% CI for Cmax,[1],131%
same,"NET AUC0-t, Geometric LSMean % Ratio (100 * Test/Reference)",[2],115.52%
same,"NET AUC0-∞, Geometric LSMean % Ratio (100 * Test/Reference)",[2],116.27%
same,"NET Cmax, Geometric LSMean % Ratio (100 * Test/Reference)",[2],113.18%
same,NET Cmax and AUC increase,Group B1: SYM-1219 2 g and EE2/NET co-administered on Day 1,13%
same,"NET λz, Mean",[3],0.07709 h⁻¹
same,"NET λz, Median",[3],0.07966 h⁻¹
same,"NET λz, Mean",[4],0.07886 h⁻¹
same,"NET λz, Median",[4],0.07642 h⁻¹
same,"NET AUC0-t, Geometric LSMean % Ratio (100 * Test/Reference)",[5],110.78%
same,"NET AUC0-∞, Geometric LSMean % Ratio (100 * Test/Reference)",[5],108.75%
same,"NET Cmax, Geometric LSMean % Ratio (100 * Test/Reference)",[5],116.46%
same,NET Cmax increase,[6],16%
same,change in NET AUC,[6],no change
same,"NET λz, Mean",[7],0.07369 h⁻¹
same,"NET λz, Median",[7],0.07458 h⁻¹
same,"NET Cmax, Mean",[8],10.6 ng/mL
same,"NET λz, Mean",[8],0.07685 h⁻¹
same,"NET λz, Median",[8],0.07539 h⁻¹
same,"NET Cmax, AUC0-t or AUC0-∞ increase",SYM-1219 administered immediately after EE2/NET,13-16%
same,AUC(0-t),"female, human, plasma, Group B1 Period 1: EE2/NET alone, read-out: NET AUC0-t, Geometric LSMeans",42.2 ng·h/mL
same,AUC(0-t),"female, human, plasma, Group B1 Period 1: EE2/NET alone, read-out: NET AUC0-t, Mean",49.4 ng·h/mL
same,AUC(0-t),"female, human, plasma, Group B1 Period 1: EE2/NET alone, read-out: NET AUC0-t, Median",38.7 ng·h/mL
same,AUC(0-inf),"female, human, plasma, Group B1 Period 1: EE2/NET alone, read-out: NET AUC0-∞, Geometric LSMeans",48.5 ng·h/mL
same,AUC(0-inf),"female, human, plasma, Group B1 Period 1: EE2/NET alone, read-out: NET AUC0-∞, Mean",57.8 ng·h/mL
same,AUC(0-inf),"female, human, plasma, Group B1 Period 1: EE2/NET alone, read-out: NET AUC0-∞, Median",45.3 ng·h/mL
same,Cmax,"female, human, plasma, Group B1 Period 1: EE2/NET alone, read-out: NET Cmax, Geometric LSMeans",8.09 ng/mL
same,Cmax,"female, human, plasma, Group B1 Period 1: EE2/NET alone, read-out: NET Cmax, Mean",9.18 ng/mL
same,Cmax,"female, human, plasma, Group B1 Period 1: EE2/NET alone, read-out: NET Cmax, Median",8 ng/mL
same,Tmax,"female, human, plasma, Group B1 Period 1: EE2/NET alone, read-out: NET Tmax, Median",1 h
same,half-life,"female, human, plasma, Group B1 Period 1: EE2/NET alone, read-out: NET t1/2, Mean (converted)",9.6 h
same,half-life,"female, human, plasma, Group B1 Period 1: EE2/NET alone, read-out: NET t1/2, Median (converted)",8.71 h
same,AUC(0-t),"female, human, plasma, Group B1 Period 2: EE2/NET followed by SYM-1219 2 grams on Day 1, read-out: NET AUC0-t, Geometric LSMeans",48.7 ng·h/mL
same,AUC(0-t),"female, human, plasma, Group B1 Period 2: EE2/NET followed by SYM-1219 2 grams on Day 1, read-out: NET AUC0-t, Mean",53.5 ng·h/mL
same,AUC(0-t),"female, human, plasma, Group B1 Period 2: EE2/NET followed by SYM-1219 2 grams on Day 1, read-out: NET AUC0-t, Median",48.9 ng·h/mL
same,AUC(0-inf),"female, human, plasma, Group B1 Period 2: EE2/NET followed by SYM-1219 2 grams on Day 1, read-out: NET AUC0-∞, Geometric LSMeans",56.4 ng·h/mL
same,AUC(0-inf),"female, human, plasma, Group B1 Period 2: EE2/NET followed by SYM-1219 2 grams on Day 1, read-out: NET AUC0-∞, Mean",62.4 ng·h/mL
same,AUC(0-inf),"female, human, plasma, Group B1 Period 2: EE2/NET followed by SYM-1219 2 grams on Day 1, read-out: NET AUC0-∞, Median",54.3 ng·h/mL
same,Cmax,"female, human, plasma, Group B1 Period 2: EE2/NET followed by SYM-1219 2 grams on Day 1, read-out: NET Cmax, Geometric LSMeans",9.16 ng/mL
same,Cmax,"female, human, plasma, Group B1 Period 2: EE2/NET followed by SYM-1219 2 grams on Day 1, read-out: NET Cmax, Mean",10.1 ng/mL
same,Cmax,"female, human, plasma, Group B1 Period 2: EE2/NET followed by SYM-1219 2 grams on Day 1, read-out: NET Cmax, Median",9.45 ng/mL
same,half-life,"female, human, plasma, Group B1 Period 2: EE2/NET followed by SYM-1219 2 grams on Day 1, read-out: NET t1/2, Mean (converted)",9.6 h
same,half-life,"female, human, plasma, Group B1 Period 2: EE2/NET followed by SYM-1219 2 grams on Day 1, read-out: NET t1/2, Median (converted)",9.12 h
same,AUC(0-t),"female, human, plasma, Group B2 Period 1: EE2/NET alone, read-out: NET AUC0-t, Geometric LSMeans",46.9 ng·h/mL
same,AUC(0-t),"female, human, plasma, Group B2 Period 1: EE2/NET alone, read-out: NET AUC0-t, Mean",61.4 ng·h/mL
same,AUC(0-t),"female, human, plasma, Group B2 Period 1: EE2/NET alone, read-out: NET AUC0-t, Median",41.7 ng·h/mL
same,AUC(0-inf),"female, human, plasma, Group B2 Period 1: EE2/NET alone, read-out: NET AUC0-∞, Geometric LSMeans",55.1 ng·h/mL
same,AUC(0-inf),"female, human, plasma, Group B2 Period 1: EE2/NET alone, read-out: NET AUC0-∞, Mean",75 ng·h/mL
same,AUC(0-inf),"female, human, plasma, Group B2 Period 1: EE2/NET alone, read-out: NET AUC0-∞, Median",47.4 ng·h/mL
same,Cmax,"female, human, plasma, Group B2 Period 1: EE2/NET alone, read-out: NET Cmax, Geometric LSMeans",8.36 ng/mL
same,Cmax,"female, human, plasma, Group B2 Period 1: EE2/NET alone, read-out: NET Cmax, Mean",9.63 ng/mL
same,Cmax,"female, human, plasma, Group B2 Period 1: EE2/NET alone, read-out: NET Cmax, Median",8.16 ng/mL
same,half-life,"female, human, plasma, Group B2 Period 1: EE2/NET alone, read-out: NET t1/2, Mean (converted)",10 h
same,half-life,"female, human, plasma, Group B2 Period 1: EE2/NET alone, read-out: NET t1/2, Median (converted)",9.29 h
same,AUC(0-t),"female, human, plasma, Group B2 Period 2: SYM-1219 2 grams on Day 1, EE2/NET on Day 2, read-out: NET AUC0-t, Geometric LSMeans",51.9 ng·h/mL
same,AUC(0-t),"female, human, plasma, Group B2 Period 2: SYM-1219 2 grams on Day 1, EE2/NET on Day 2, read-out: NET AUC0-t, Mean",61.2 ng·h/mL
same,AUC(0-t),"female, human, plasma, Group B2 Period 2: SYM-1219 2 grams on Day 1, EE2/NET on Day 2, read-out: NET AUC0-t, Median",44.5 ng·h/mL
same,AUC(0-inf),"female, human, plasma, Group B2 Period 2: SYM-1219 2 grams on Day 1, EE2/NET on Day 2, read-out: NET AUC0-∞, Geometric LSMeans",60 ng·h/mL
same,AUC(0-inf),"female, human, plasma, Group B2 Period 2: SYM-1219 2 grams on Day 1, EE2/NET on Day 2, read-out: NET AUC0-∞, Mean",71.5 ng·h/mL
same,AUC(0-inf),"female, human, plasma, Group B2 Period 2: SYM-1219 2 grams on Day 1, EE2/NET on Day 2, read-out: NET AUC0-∞, Median",51.6 ng·h/mL
same,Cmax,"female, human, plasma, Group B2 Period 2: SYM-1219 2 grams on Day 1, EE2/NET on Day 2, read-out: NET Cmax, Geometric LSMeans",9.74 ng/mL
same,Cmax,"female, human, plasma, Group B2 Period 2: SYM-1219 2 grams on Day 1, EE2/NET on Day 2, read-out: NET Cmax, Mean",10.7 ng/mL
same,Cmax,"female, human, plasma, Group B2 Period 2: SYM-1219 2 grams on Day 1, EE2/NET on Day 2, read-out: NET Cmax, Median",9.39 ng/mL
same,half-life,"female, human, plasma, Group B2 Period 2: SYM-1219 2 grams on Day 1, EE2/NET on Day 2, read-out: NET t1/2, Mean (converted)",9.51 h
same,half-life,"female, human, plasma, Group B2 Period 2: SYM-1219 2 grams on Day 1, EE2/NET on Day 2, read-out: NET t1/2, Median (converted)",9.19 h
